# Experimental data: patent publication US20240366728A1, “Treatment of Diabetes Mellitus” (Carmot Therapeutics Inc., priority 2023, published 2024)
# Assay: toxicology studies
# Conditions: highest dose tested
smiles,measurement,value
CCCCCCCCCCCCCCCC(=O)N[C@@H](CCC(=O)NCCCC[C@H](NC(=O)[C@H](CO)NC(=O)[C@@H]1CCCN1C(=O)[C@@H]1CCCN1C(=O)[C@@H]1CCCN1C(=O)[C@H](C)NC(=O)CNC(=O)[C@H](CO)NC(=O)[C@H](CO)NC(=O)[C@@H]1CCCN1C(=O)CNC(=O)CNC(=O)[C@H](C)NC(=O)[C@H](CC(C)C)NC(=O)[C@H](CC(C)C)NC(=O)[C@H](Cc1c[nH]c2ccccc12)NC(=O)[C@H](CC(N)=O)NC(=O)[C@@H](NC(=O)[C@H](Cc1ccccc1)NC(=O)[C@H](CCC(=O)O)NC(=O)C(C)(C)NC(=O)[C@H](C)NC(=O)[C@H](C)NC(=O)[C@H](CCC(N)=O)NC(=O)[C@H](CCCCN)NC(=O)[C@H](CC(=O)O)NC(=O)[C@H](CC(C)C)NC(=O)[C@H](Cc1ccc(O)cc1)NC(=O)[C@@H](NC(=O)[C@H](CO)NC(=O)[C@H](Cc1ccc(O)cc1)NC(=O)[C@H](CC(=O)O)NC(=O)[C@H](CO)NC(=O)[C@@H](NC(=O)[C@H](Cc1ccccc1)NC(=O)[C@@H](NC(=O)CNC(=O)[C@H](CCC(=O)O)NC(=O)CSCC(=O)NCCN1CCCCC1=O)[C@@H](C)O)[C@@H](C)O)[C@@H](C)CC)C(C)C)C(N)=O)C(=O)O [CT-868],tolerability in toxicology studies (in words),well-tolerated at the highest dose tested
